In patent US7973034B2, “Amide, aryl sulfonamide, aryl urea, and α,β-diketone derived carboxylesterase inhibitors, and their methods of use” (priority 2003, dated 2011):
Like-named read-outs stand apart in the source and are kept apart here.

Tests used:
[1] = target: T1, human liver carboxylesterase (hCE1) (Homo sapiens, UniProt P23141); assay: biochemical; type: biochemical; conditions: o-NPA as substrate
T1 sequence (P23141 18-567): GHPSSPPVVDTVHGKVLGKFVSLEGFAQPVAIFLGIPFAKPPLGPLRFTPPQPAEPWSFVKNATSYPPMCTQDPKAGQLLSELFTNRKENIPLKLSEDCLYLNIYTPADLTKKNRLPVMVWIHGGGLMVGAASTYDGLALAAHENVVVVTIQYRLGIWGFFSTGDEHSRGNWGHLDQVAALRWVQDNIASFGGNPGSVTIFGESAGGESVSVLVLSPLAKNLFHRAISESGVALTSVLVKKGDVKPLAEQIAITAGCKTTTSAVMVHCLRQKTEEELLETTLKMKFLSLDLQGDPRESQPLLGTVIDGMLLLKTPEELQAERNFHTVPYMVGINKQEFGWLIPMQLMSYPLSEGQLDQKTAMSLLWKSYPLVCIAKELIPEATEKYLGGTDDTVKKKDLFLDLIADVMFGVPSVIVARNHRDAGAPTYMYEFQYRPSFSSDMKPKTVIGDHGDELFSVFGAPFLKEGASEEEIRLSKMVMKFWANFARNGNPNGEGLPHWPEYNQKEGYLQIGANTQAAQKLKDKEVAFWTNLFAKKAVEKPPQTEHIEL

[2] = target: human butyrylcholinesterase (hBuChE) (Homo sapiens, UniProt P06276); assay: biochemical
carboxylesterases = assay: General carboxylesterase inhibition; type: biochemical
Description: Carboxylesterase (CE) inhibition was determined by a spectroscopic assay using o-nitrophenyl acetate (o-NPA) as a substrate. Recombinant CEs produced from expression in Spodoptera frugiperda Sf9 insect cells via baculovirus were purified from serum-free culture media for the enzyme inhibition studies. Enzymes were incubated in 200 μl of 50 mM Hepes (pH 7.4) containing 3 mM o-NPA. Conversion of the o-NPA to nitrophenol was monitored by measuring the change in the absorbance at 420 nm. Absorbance readings were taken every 15 seconds for 2 minutes, and data transferred to a computer data spreadsheet. […] The final DMSO concentration was always 1% or less. […] The above procedure was then repeated using the same assay, with inhibitor concentrations ranging from 1 nM to 100 μM. Results were then transferred to Prism software (GraphPad Software, Inc., San Diego, Calif.) and Ki values determined using sigmoidal curve fits of the data. Routinely, all analyses were performed in duplicate, and Ki values determined using at least 8 inhibitor concentrations.

[3] = target: T2, human acetylcholinesterase (hAcChE) (Homo sapiens, UniProt P22303); assay: biochemical; type: biochemical
T2 construct: purchased Sigma Biochemicals (St. Louis, Mo.)
Description: Data was transferred to GraphPad Prism software, and Ki values were calculated as described in the Example above.

[4] = target: T3, rabbit liver carboxylesterase (rCE) (Oryctolagus cuniculus, UniProt P12337); assay: biochemical; type: biochemical; conditions: o-NPA as substrate
T3 sequence (P12337 19-565): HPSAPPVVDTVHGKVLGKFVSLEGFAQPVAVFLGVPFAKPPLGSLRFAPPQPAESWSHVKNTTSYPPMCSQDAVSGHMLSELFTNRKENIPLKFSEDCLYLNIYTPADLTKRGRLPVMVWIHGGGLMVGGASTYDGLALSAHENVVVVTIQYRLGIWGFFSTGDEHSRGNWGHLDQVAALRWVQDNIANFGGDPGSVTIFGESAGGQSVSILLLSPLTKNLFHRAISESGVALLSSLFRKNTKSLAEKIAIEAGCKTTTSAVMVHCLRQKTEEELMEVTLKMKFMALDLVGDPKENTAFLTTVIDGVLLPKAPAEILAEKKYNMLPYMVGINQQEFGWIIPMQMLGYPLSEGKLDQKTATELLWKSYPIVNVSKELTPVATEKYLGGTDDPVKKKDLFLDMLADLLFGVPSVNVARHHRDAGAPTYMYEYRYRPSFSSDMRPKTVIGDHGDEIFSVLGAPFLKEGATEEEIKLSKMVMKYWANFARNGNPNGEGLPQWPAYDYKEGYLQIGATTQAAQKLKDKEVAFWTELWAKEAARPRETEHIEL

[5] = target: T4, human small intestine carboxylesterase (hiCE) (Homo sapiens, UniProt O00748); assay: biochemical; type: biochemical; conditions: for Ki / Ki (hCE1)/Ki (hiCE): o-NPA as substrate; for Ki: Table 5, read-out: Ki hiCE; for Ki (hCE1)/Ki (hiCE): selectivity ratio
T4 sequence (O00748 27-559): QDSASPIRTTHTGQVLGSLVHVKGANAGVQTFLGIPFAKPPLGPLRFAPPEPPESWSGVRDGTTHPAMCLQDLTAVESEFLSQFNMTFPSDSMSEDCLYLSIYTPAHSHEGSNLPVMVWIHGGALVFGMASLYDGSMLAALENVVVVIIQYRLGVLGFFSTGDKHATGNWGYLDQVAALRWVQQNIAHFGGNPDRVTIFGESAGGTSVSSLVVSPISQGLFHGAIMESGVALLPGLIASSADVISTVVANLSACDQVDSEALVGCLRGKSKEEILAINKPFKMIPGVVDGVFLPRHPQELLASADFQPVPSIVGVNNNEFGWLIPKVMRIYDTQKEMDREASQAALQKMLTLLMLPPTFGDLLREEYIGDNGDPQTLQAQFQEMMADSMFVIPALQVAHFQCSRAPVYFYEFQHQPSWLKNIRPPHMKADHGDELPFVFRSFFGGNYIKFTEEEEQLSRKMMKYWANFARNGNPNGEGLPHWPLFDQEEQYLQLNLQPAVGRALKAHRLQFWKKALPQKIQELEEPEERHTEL

hiCE = target: T5, hiCE (Homo sapiens, UniProt O00748); assay: Inhibition of hiCE-mediated activation of CPT-11 (SN-38 by HPLC); type: biochemical
T5 sequence (O00748 27-559): T4 sequence (O00748 27-559)
Description: Since the sulphonamide compounds identified herein are competitive inhibitors of hiCE, their activity is dependant upon the substrate used. To access the ability of these compounds to inhibit the hiCE-mediated activation of CPT-11, Ki values were determined using CPT-11 as the substrate.
CPT-11 concentrations were fixed at […], and inhibitor concentrations varied from 1 nM to 10 μM. Following incubation for an hour at 37° C., the levels of SN-38 in the reaction mixture was determined by High Performance Liquid Chromatography (HPLC).

[6] = target: T6, human intestinal carboxylesterase in U373MGhiCE cells (Homo sapiens, UniProt O00748); assay: Inhibition of intracellular carboxylesterase in U373MGhiCE cells; type: cell-based
T6 construct: expressed in transfected cells; host or cells: U373MG human glioma cells (U373MGhiCE)
T6 sequence (O00748 27-559): T4 sequence (O00748 27-559)
Description: To monitor the ability of the compounds to cross the cell membrane and inhibit carboxylesterase activity intracellularly, an assay using human tumor cells expressing hiCE was devised. U373MGhiCE (a human glioma cell line transfected with a plasmid expressing hiCE) were plated in T25 flasks and allowed to grow to confluency (approximately 2-5×10^5 cells). Inhibitors were then added at a final concentration of […], and incubation allowed to continue for 1 hour. At this time, the cells were washed extensively with 5 ml of complete media and 2×5 ml of Hanks balanced salt solution, and cell extracts were prepared. Carboxylesterase activity was then determined using o-NPA as a substrate.
Table 8 sets forth the level of intracellular enzyme inhibition following incubation of human glioblastoma tumor cells expressing human intestinal carboxylesterase with 10 μM of each compound identified in Table 3.

[7] = Table 6, read-out: hCE1 Ki ± SE
[8] = butyrylthiocholine as substrate, Table 6, read-out: hBuChE Ki
[9] = acetylthiocholine as substrate, Table 6, read-out: hAcChE Ki
[10] = CPT-11 as substrate (100 μm), 1 hour at 37° C., read-out: Ki hiCE
[11] = acetylthiocholine substrate, Table 5, read-out: Ki hAcChE

human butyrylcholinesterase (hBuChE), sequence (P06276 29-602): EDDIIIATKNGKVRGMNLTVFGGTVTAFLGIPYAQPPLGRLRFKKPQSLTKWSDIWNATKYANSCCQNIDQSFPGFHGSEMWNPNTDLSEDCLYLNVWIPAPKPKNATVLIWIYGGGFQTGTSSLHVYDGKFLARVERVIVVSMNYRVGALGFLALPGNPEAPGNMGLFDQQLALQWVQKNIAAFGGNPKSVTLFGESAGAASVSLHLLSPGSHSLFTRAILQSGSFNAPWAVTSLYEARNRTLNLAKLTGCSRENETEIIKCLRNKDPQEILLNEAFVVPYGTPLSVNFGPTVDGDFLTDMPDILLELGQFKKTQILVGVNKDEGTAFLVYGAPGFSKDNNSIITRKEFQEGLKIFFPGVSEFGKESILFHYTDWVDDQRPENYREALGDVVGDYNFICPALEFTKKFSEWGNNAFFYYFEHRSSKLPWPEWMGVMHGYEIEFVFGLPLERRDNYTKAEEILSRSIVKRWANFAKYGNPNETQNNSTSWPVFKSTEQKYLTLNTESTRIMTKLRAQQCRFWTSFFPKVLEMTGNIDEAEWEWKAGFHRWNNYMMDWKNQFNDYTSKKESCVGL
T2 sequence (P22303 32-614): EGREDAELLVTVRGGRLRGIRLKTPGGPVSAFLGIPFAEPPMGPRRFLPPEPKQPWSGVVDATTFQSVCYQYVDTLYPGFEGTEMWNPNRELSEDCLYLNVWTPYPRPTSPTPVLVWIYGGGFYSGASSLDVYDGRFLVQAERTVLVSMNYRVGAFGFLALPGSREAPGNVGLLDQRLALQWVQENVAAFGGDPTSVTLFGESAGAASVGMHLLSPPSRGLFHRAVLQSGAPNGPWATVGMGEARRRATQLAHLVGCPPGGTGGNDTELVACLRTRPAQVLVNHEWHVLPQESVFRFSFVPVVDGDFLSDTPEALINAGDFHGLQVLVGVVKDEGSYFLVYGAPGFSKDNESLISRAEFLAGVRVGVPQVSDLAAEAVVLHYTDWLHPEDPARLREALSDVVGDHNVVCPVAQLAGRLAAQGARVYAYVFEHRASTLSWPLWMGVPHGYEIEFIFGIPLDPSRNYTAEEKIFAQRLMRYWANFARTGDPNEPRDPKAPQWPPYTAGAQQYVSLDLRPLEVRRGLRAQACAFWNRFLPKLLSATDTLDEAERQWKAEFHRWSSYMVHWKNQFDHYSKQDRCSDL

Structure (SMILES): O=C(O)c1ccc(C(=O)C(=O)c2ccccc2)cc1 [Compound 1, 4-[oxo(phenyl)acetyl]benzoic acid]
- Ki [1, 7]: 524 ± 46 nM
- Ki [2, 8]: > 100000 nM
- found to be general carboxylesterase inhibitors (carboxylesterases): general carboxylesterase inhibitors
- Ki [3, 9]: > 100000 nM
- Ki ([4]; Table 6, read-out: rCE Ki ± SE): 64 ± 6.2 nM

Structure (SMILES): O=C(C(=O)c1ccc(CBr)cc1)c1ccccc1 [Compound 3]
- Ki [1, 7]: 77.6 ± 5.5 nM
- Ki [2]: > 100000 nM
- found to be general carboxylesterase inhibitors (carboxylesterases): general carboxylesterase inhibitors
- Ki ([4]; Table 6, read-out: rCE Ki ± SE): 15 ± 1.6 nM

Structure (SMILES): Cc1ccc(C(=O)C(=O)c2ccccc2)cc1C [Compound 5, 1-(3,4-dimethylphenyl)-2-phenylethane-1,2-dione]
- Ki [1, 7]: 99.1 ± 10 nM
- Ki [2]: > 100000 nM
- found to be general carboxylesterase inhibitors (carboxylesterases): general carboxylesterase inhibitors
- Ki [3, 9]: > 100000 nM
- Ki ([4]; Table 6, read-out: rCE Ki ± SE): 108 ± 8.8 nM

Structure (SMILES): COc1ccc(C(=O)C(=O)c2ccccc2)cc1 [Compound 6, 1-(4-methoxyphenyl)-2-2phenylethane-1,2-dione]
- Ki [1, 7]: 175 ± 8.5 nM
- Ki [2]: > 100000 nM
- found to be general carboxylesterase inhibitors (carboxylesterases): general carboxylesterase inhibitors
- Ki [3, 9]: > 100000 nM
- Ki ([4]; Table 6, read-out: rCE Ki ± SE): 200 ± 60 nM

Structure (SMILES): Cc1ccc(C(=O)C(=O)c2ccccc2)cc1[N+](=O)[O-] [Compound 7, 1-(4-methyl-3-nitrophenyl)-2-phenylethane-1,2-dione]
- Ki [1, 7]: 295 ± 9.6 nM
- Ki [2]: > 100000 nM
- found to be general carboxylesterase inhibitors (carboxylesterases): general carboxylesterase inhibitors
- Ki [3, 9]: > 100000 nM
- Ki ([4]; Table 6, read-out: rCE Ki ± SE): 11.9 ± 1.1 nM

Structure (SMILES): O=C(C(=O)c1ccc([N+](=O)[O-])cc1)c1ccccc1 [Compound 14, 1-(4-nitrophenyl)-2-phenylethane-1,2-dione]
- Ki [1, 7]: 215 ± 24 nM
- Ki [2]: > 100000 nM
- found to be general carboxylesterase inhibitors (carboxylesterases): general carboxylesterase inhibitors
- Ki [3, 9]: > 100000 nM
- Ki ([4]; Table 6, read-out: rCE Ki ± SE): 21.7 ± 2.5 nM

Structure (SMILES): O=C(C(=O)c1ccc(F)cc1)c1ccc(F)cc1 [Compound 16, 1,2-bis(4-fluorophenyl)ethane-1,2-dione]
- found to be general carboxylesterase inhibitors (carboxylesterases): general carboxylesterase inhibitors

Structure (SMILES): Cc1ccc(C(=O)C(=O)c2ccc(C)cc2)cc1 [Compound 17, 1,2-bis(4-methylphenyl)ethane-1,2-dione]
- Ki [1, 7]: 532 ± 35 nM
- Ki [2, 8]: > 100000 nM
- found to be general carboxylesterase inhibitors (carboxylesterases): general carboxylesterase inhibitors
- Ki [3, 9]: > 100000 nM
- Ki ([4]; Table 6, read-out: rCE Ki ± SE): 49.6 ± 6.8 nM

Structure (SMILES): O=C(C(=O)c1cc(F)cc(F)c1)c1cc(F)cc(F)c1 [Compound 19, 1,2-bis(3,5-difluorophenyl)ethane-1,2-dione]
- found to be general carboxylesterase inhibitors (carboxylesterases): general carboxylesterase inhibitors

Structure (SMILES): O=C(C(=O)c1cc(F)c(F)c(F)c1)c1cc(F)c(F)c(F)c1 [Compound 20, 1,2-bis(3,4,5-trifluorophenyl)ethane-1,2-dione]
- found to be general carboxylesterase inhibitors (carboxylesterases): general carboxylesterase inhibitors

Structure (SMILES): Cc1ccc(C(=O)C(=O)c2ccc(Cl)cc2)cc1 [Compound 22, 1-(4-chlorophenyl)-2-(4-methylphenyl)ethane-1,2-dione]
- Ki [1, 7]: 160 ± 32 nM
- Ki [2]: > 100000 nM
- found to be general carboxylesterase inhibitors (carboxylesterases): general carboxylesterase inhibitors
- Ki ([4]; Table 6, read-out: rCE Ki ± SE): 16.2 ± 1.7 nM

Structure (SMILES): O=C(C(=O)c1cccs1)c1cccs1 [Compound 23, 1,2-dithien-2-yl-ethane-1,2-dione]
- found to be general carboxylesterase inhibitors (carboxylesterases): general carboxylesterase inhibitors

Structure (SMILES): O=S(=O)(Nc1c(Cl)c(Cl)c(NS(=O)(=O)c2ccccc2)c(Cl)c1Cl)c1ccccc1 [Compound 44, N-{2,3,5,6-tetrachloro-4-[(phenylsulfonyl)amino]phenyl}benzene sulfonamide]
- Ki ([1]; Table 5, read-out: Ki hCE1): > 100000 nM
- Ki [2]: > 100000 nM
- change in apparent Vmax of hiCE ([5]; 149 nM or 447 nM inhibitor): no change
- Ki [5]: 451 ± 39 nM
- Ki (hCE1)/Ki (hiCE) [5]: >220
- Ki (hiCE; [10]): > 100000 nM
- inhibition at 10 µM [6]: 0.6%
- Ki [3, 11]: > 100000 nM
- Ki ([4]; Table 5, read-out: Ki rCE): > 100000 nM

Structure (SMILES): O=S(=O)(Nc1ccc(NS(=O)(=O)c2ccc(Cl)cc2)cc1)c1ccc(Cl)cc1 [Compound 45, 4-chloro-N-(4-{[(4-chlorophenyl)sulfonyl]amino}phenyl) benzenesulfonamide]
- Ki ([1]; Table 5, read-out: Ki hCE1): 13700 nM
- Ki [2]: > 100000 nM
- Ki [5]: 53.3 ± 5.5 nM
- Ki (hCE1)/Ki (hiCE) [5]: >250
- Ki (hiCE): 141 ± 64 nM
- inhibition at 10 µM [6]: 7.5%
- Ki [3, 11]: > 100000 nM
- Ki ([4]; Table 5, read-out: Ki rCE): 1200 nM

Structure (SMILES): O=S(=O)(Nc1ccc(Oc2ccccc2)cc1)c1ccc(Br)cc1 [Compound 46, 4-bromo-N-(4-phenoxyphenyl)benzenesulfonamide]
- Ki ([1]; Table 5, read-out: Ki hCE1): > 100000 nM
- Ki [2]: > 100000 nM
- Ki [5]: 165 ± 33 nM
- Ki (hCE1)/Ki (hiCE) [5]: >600
- Ki (hiCE; [10]): > 100000 nM
- inhibition at 10 µM [6]: 0%
- Ki [3, 11]: > 100000 nM
- Ki ([4]; Table 5, read-out: Ki rCE): 319 ± 37 nM

Structure (SMILES): O=C(NC(Cc1ccccc1)C(=O)Oc1ccc2ccccc2c1)c1ccccc1 (centres unmarked) [Compound 57, 2-Benzoylamino-3-phenyl-propionic acid naphthalene-2-yl ester]
- Ki ([1]; Table 5, read-out: Ki hCE1): > 100000 nM
- Ki [5]: 61 nM
- inhibition at 10 µM [6]: 24.2%
- Ki [3, 11]: > 100000 nM
